Test results published in patent US8778966B2, “Quinolinone derivatives as PARP and tank inhibitors” (Janssen Pharmaceutica, NV, priority 2007, dated 2014).

Key:
PC3 cells = assay: EB1 Comet (microtubule disruption) assay; type: cell-based, human; conditions: 1 hour treatment; for minimal effective concentration: Homo sapiens, PC-3, 1 h, read-out: EB1 pLAC (converted)
Method in brief: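 PC3 human prostate cancer cells exposed to compound for 1 h at 37 °C (0.6% DMSO final), methanol-fixed, immunostained for Eb1 and imaged at 20×. Value is the lowest active concentration (LAC): the concentration at which Eb1 foci are absent in at least 50% of treated cells.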

HCT116 cells = assay: Mitotic arrest assay on HCT116 cells (phospho-histone H3 Ser10); type: cell-based, human; conditions: lowest active dose; for minimal effective concentration: Homo sapiens, HCT-116, HCT116 cells, read-out: Mitotic arrest HCT116 LAD (converted)
Method in brief: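 Seeded overnight, then compound-treated 6 h at 37 °C (≤0.1% DMSO); fixed, stained with Alexa Fluor 488 anti-phospho-H3 (Ser10) plus Hoechst 33342, imaged on InCell Analyzer 1000. Blank-subtracted signal divided by SD (sigma), triplicate; value is lowest dose giving sigma >5 (LAD).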

Row | SMILES | minimal effective concentration (PC3 cells) | minimal effective concentration (HCT116 cells) | EB1 pLAC (PC3 cells) | Mitotic arrest HCT116 LAD (HCT116 cells; HCT116 cells, the values are: pLAD (−log M lowest active dose))
1 | Cc1cc2ccc(C(C)(C#N)Cc3ccccc3)cc2[nH]c1=O (stereo not drawn) [Compound 76] | 1 µM | 0.316 µM |  | 
2 | CCc1cc2ccc(C(C)(C#N)Cc3ccc(OC)c(C#N)c3)cc2[nH]c1=O (stereo not drawn) [Compound 77] | 1 µM | 0.316 µM |  | 
3 | CCc1cc2ccc(C(C)(C#N)Cc3cc(C)ccc3C)cc2[nH]c1=O (stereo not drawn) [Compound 78] | 0.1 µM | 0.1 µM |  | 
4 | CCc1cc2ccc(C(C)(C#N)Cc3ccc(F)c(C)c3)cc2[nH]c1=O (stereo not drawn) [Compound 79] | 1 µM | 0.316 µM |  | 
5 | CCc1cc2ccc(C(C)(C#N)Cc3cc(Cl)ccc3OC)cc2[nH]c1=O (stereo not drawn) [Compound 80] | 0.1 µM | 0.1 µM |  | 
6 | CCc1cc2ccc(C(C)(C#N)Cc3cccc(Br)c3C)cc2[nH]c1=O (stereo not drawn) [Compound 81] | 0.316 µM | 0.1 µM |  | 
7 | CCc1cc2ccc(C(C)(C#N)Cc3ccc(Cl)c(C(F)(F)F)c3)cc2[nH]c1=O (stereo not drawn) [Compound 82] | 1 µM | 0.1 µM |  | 
8 | CCc1cc2ccc(C(C)(C#N)Cc3ccc(C)c(F)c3F)cc2[nH]c1=O (stereo not drawn) [Compound 83] | 1 µM | 0.316 µM |  | 
9 | CCc1cc2ccc(C(C)(C#N)Cc3c(C)cccc3C)cc2[nH]c1=O (stereo not drawn) [Compound 84] | 1 µM | 0.316 µM |  | 
10 | CCc1cc2ccc(C(C)(C#N)Cc3nc4ccccc4o3)cc2[nH]c1=O (stereo not drawn) [Compound 85] | 0.316 µM | 0.316 µM |  | 
11 | CCc1cc2ccc(C(C)(C#N)Cc3csc(C)n3)cc2[nH]c1=O (stereo not drawn) [Compound 86] | 3.16 µM | 1 µM |  | 
12 | CCc1cc2ccc(C(C)(C#N)Cc3ccc4nccnc4c3)cc2[nH]c1=O (stereo not drawn) [Compound 87] | 3.16 µM | 0.316 µM |  | 
13 | CCc1cc2ccc(C(C)(C#N)Cc3cc(Cl)cc4c3OCOC4)cc2[nH]c1=O (stereo not drawn) [Compound 90] | 1 µM | 0.316 µM |  | 
14 | CCc1cc2ccc(C(C)(C#N)Cc3cc4c(cc3Cl)OCO4)cc2[nH]c1=O (stereo not drawn) [Compound 91] | 0.1 µM | 0.1 µM |  | 
15 | CCc1cc2ccc(C(C)(C#N)Cc3cc(Cl)cc4c3OCOC4)cc2[nH]c1=O (stereo not drawn) [Compound 92] |  |  | 6 | 6.5
16 | CCc1cc2ccc(C(C)(C#N)Cc3cc(Cl)ccc3Cl)cc2[nH]c1=O (stereo not drawn) [Compound 99] | 0.1 µM | 0.1 µM |  | 
17 | CCc1cc2ccc(C(C)(C#N)Cc3ccccc3C#N)cc2[nH]c1=O (stereo not drawn) [Compound 101] | 1 µM | 0.316 µM |  | 
18 | CCc1cc2ccc(C(C)(C#N)Cc3ccccc3OC(F)(F)F)cc2[nH]c1=O (stereo not drawn) [Compound 102] | 3.16 µM | 0.316 µM |  | 
19 | CCc1cc2ccc(C(C)(C#N)Cc3ccccc3C(F)(F)F)cc2[nH]c1=O (stereo not drawn) [Compound 103] | 0.316 µM | 0.316 µM |  | 
20 | Cc1cc2ccc(C(C)(C#N)Cc3cc4ccccc4[nH]3)cc2[nH]c1=O (stereo not drawn) [Compound 234] | > 10 µM | 3 µM |  | 
21 | CCc1cc2ccc(C(C)(C#N)Cc3ccc(F)c(C#N)c3)cc2[nH]c1=O (stereo not drawn) [Compound 267] | 0.1 µM | 0.1 µM |  | 
22 | CCc1cc2ccc(C(C)(C#N)CCOc3ccccc3F)cc2[nH]c1=O (stereo not drawn) [Compound 278] | 1 µM | 1 µM |  | 
23 | CCc1cc2ccc(C(C)(C#N)CCOc3ccc4c(c3)OCO4)cc2[nH]c1=O (stereo not drawn) [Compound 279] | 1 µM | 1 µM |  | 
24 | CCc1cc2ccc(C(C)(C#N)Cc3cc(OC)cc(OC)c3)cc2[nH]c1=O (stereo not drawn) [Compound 332] | 0.316 µM | 0.1 µM |  | 
